Test results published in patent US20200308162A1, “DRUGS AND COMPOSITIONS FOR OCULAR DELIVERY” (Graybug Vision, Inc., priority 2017, published 2020).
“Also recorded” adds a separate entry of the source.

What was measured:
[1] = Drug solubility in water, DMSO and DCM (HPLC of filtered supernatant); conditions: for solubility: thermodynamic from solid
Protocol: For each test, approximately 5-10 mg was transferred to a 10 mL glass vial. Aqueous or organic solvent was added to each vial to achieve an overall concentration of 50 mg/mL. After vortexing aggressively for 2-3 minutes and sonicating in a bath sonicator for 5 minutes, undissolved drug was spun down at 1200 rpm for 5 minutes to generate a pellet. The supernatant was collected and filtered through a 0.2 μm nylon syringe filter into HPLC vials for drug content analysis. Drug concentration was determined by comparing against a standard calibration curve.

[2] = Drug release kinetics of Timolol and ethacrynic acid prodrugs from polymer microparticles; format: physicochemical
Protocol: The effect of polymer composition including monomer ratio and molecular weight, polymer end-groups (ester or acid), inherent viscosity and polymer blend ratios on particle degradation and drug release kinetics of Timolol-O-ethyl fumurate (17) was evaluated and is illustrated in FIG. 5. The rate of particle degradation was slowed and drug release was prolonged when the mole % of DL-lactide over glycolide was increased. By incorporating polymers with different monomer ratios (i.e., PLA, PLGA8515, PLGA525, PLGA5050 wherein 8515 refers to 85% DL-lactide and 15% glycolide) into the particles, it is possible to fine-tune the degradation rate of the particles to achieve a linear rate of drug release from the particles to minimize burst or lag and to extend the duration of release. […] The 78/22(PLA 5A/PLGA8515 4.5A) and 65/20/15(PLA 4A/PLGA6515 4.5A/PLGA5050 4A) polymer blends generated ideal particles for a 3-6 month linear release formulation. […] The rate of release was independent of the salt form. […] Thus, release rate is not solely dictated by the physicochemical properties of the linker, but rather must be attributed to a combination of parameters that may include linker type and site of linker conjugation.
FIG. 6 illustrates the release kinetics of ethacrynic acid-PLA(n=4)-ethyl ester (1) from PLGA microparticles. The drug was released over a period of approximately 66 days.
FIG. 8 and FIG. 9 illustrate the release kinetics of ethacrynic acid-PLA(n=4)-ethyl ester (1) and ethacrynic acid-PLA(n=6)-ethyl ester (25), respectively, from PLGA microparticles. The drug was released from a number of formulations over a period of greater than 90 days. […] Particles generated with 1% PVA in PBS was compared against particles generated in 1% PVA in water (FIG. 10).
Based upon these initial formulation screens, the formulation comprising of 1% mPEG-PLGA and 99% PLA100 4.5A:PLGA8515 5A (77:22) was selected as the lead formulation for ECA-PLA(n=4) (1) and ECA-PLA(n=6) (25) prodrugs. The particles were prepared in 1% PVA in water. The release profiles for the lead ECA-PLA(n=4) (1) and ECA-PLA(=6) (25) particle formulations are illustrated in FIG. 11.

[3] = Mean size of ethacrynic acid prodrug encapsulated microparticles; format: physicochemical
[4] = In vitro stability of ethacrynic acid prodrugs at 37° C.; format: physicochemical
From the text: As evidenced, both prodrugs of ethacrynic acid degrade steadily over the 6 day period. As the ester linkages are hydrolyzed, the parent compound is generated in a linear rate. The rate of degradation to the parent compound is faster for the shorter […] in comparison to the degradation kinetics for ethacrynic acid-PLA(n=4)-ethyl ester (1).
Approximately 94% of the ECA-PLA(n=4) prodrug (1) has been converted to free ECA by day 6, in comparison to only 56% for ECA-PLA(n=6) (25). Also, by day 6, all the initial prodrug has been degraded into intermediates and free drug respectively.

[5] = Percent drug loading of ethacrynic acid prodrug microparticles (RP-HPLC); format: physicochemical
Protocol: To determine the percent drug loading (% DL), 10 mg of particles was weighed into a glass scintillation vial and dissolved with 10 mL of MeCN:water (1:1, v/v). The solution was filtered through a 0.2 μm nylon syringe filter and the drug content was determined by RP-HPLC referenced against a standard calibration curve.

[6] = In vitro drug release kinetics of Timolol prodrug microparticles in PBS and 1% Tween 20 (pH 7.4) at 37° C.; format: physicochemical
Protocol: In vitro drug release kinetics were evaluated in a release medium composed of PBS and 1% Tween 20 (pH 7.4). Briefly, 10 mg of particles was suspended in 4 mL of the release medium The particle suspension was incubated on an orbital shaker at 150 rpm at 37° C. At various time points, 3 mL of release media was collected, and the suspension was replenished with 3 mL of fresh release media. Collected release samples were frozen and stored at −80° C. until analysis for drug content. The collected samples were filtered through a 0.2 μm syringe filter and analyzed by RP-HPLC. FIG. 17-FIG. 22 illustrate the total and parent Timolol release profile for the microparticles encapsulating bis-prodrugs of Timolol of Table 11.

[7] = Stability of Timolol prodrugs in PBS via HPLC; format: physicochemical; conditions: PBS (100% PBS)
Protocol: The stability of Compound 51 was measured in 100% serum (FIG. 27A), 50% serum and 50% PBS (FIG. 27B), and 100% PBS (FIG. 27C) via HPLC. Each point on the graph is the retention time of Compound 51, parent Timolol, and 4 breakdown products at day 0, 1, 2, 3, 4, or 5 as measured. […] The concentration of the breakdown product with a retention time of 5.454 minutes was higher than the concentration of parent Timolol (retention time=4.4 minutes).
The stability of Compound 52 was measured in PBS (FIG. 28) and the stability of Compound 53 was measured in PBS (FIG. 29).

[8] = clinical trials and post-marketing clinical use; cited from earlier work
[9] = DMSO, organic solvent or mixture
[10] = PLA100 4.5A + 1% PEG-PLGA5050, polymer 200 mg/mL
[11] = PLA100 4.5A + PLGA7525 6E (69:30) + 1% PEG-PLGA5050, polymer 200 mg/mL
[12] = PLA100 4.5A + PLGA8515 5A (77:22) + 1% PEG-PLGA5050, polymer 200 mg/mL
[13] = PLA100 4.5A + PLGA8515 5A + PLGA5050 4A (64:20:15) + 1% PEG-PLGA5050, polymer 200 mg/mL
[14] = PLA100 4.5A + PLGA8515 5A + PLGA5050 4A (64:30:5) + 1% PEG-PLGA5050, polymer 200 mg/mL
[15] = PLGA7525 4A + 1% PEG-PLGA5050, polymer 200 mg/mL
[16] = PLGA7525 6A + 1% PEG-PLGA5050, polymer 200 mg/mL
[17] = PLGA8515 5A + 1% PEG-PLGA5050, polymer 200 mg/mL
[18] = PLGA8515 5A + PLGA7525 4A (69:30) + 1% PEG-PLGA5050, polymer 200 mg/mL

Structure (SMILES): C=C(CC)C(=O)c1ccc(OCC(=O)O[C@@H](C)C(=O)O[C@@H](C)C(=O)O[C@@H](C)C(=O)O[C@@H](C)C(=O)OCC)c(Cl)c1Cl [Compound 1, (S)-2-{2-[2,3-Dichloro-4-(2-methylene-butyryl)-phenoxy]-acetoxy}-propionic acid (S)-1-[(S)-1-((S)-1-ethoxycarbonyl-ethoxycarbonyl)-ethoxycarbonyl]-ethyl ester]
- solubility [1, 9]: > 40000 µg/mL
- solubility ([1]; water): < 1000 µg/mL
- in vitro release profile of lead microparticle formulation ([2]; 1% mPEG-PLGA and 99% PLA100 4.5A:PLGA8515 5A (77:22), prepared in 1% PVA in water, FIG. 11): typical biphasic release profile
- period over which the drug was released ([2]; microparticles of PLA/PLGA blends, PLGA blends, FIG. 6): approximately 66 days
- Mean size [3, 10]: 35.06 um
- Mean size [3, 11]: 27.40 um
- Mean size [3, 12]: 26.60 um
- Mean size [3, 13]: 28.34 um
- Mean size [3, 14]: 29.86 um
- Mean size [3, 15]: 29.85 um
- Mean size [3, 16]: 25.21 um
- Mean size [3, 17]: 28.90 um
- Mean size [3, 18]: 27.74 um
- generation of parent ethacrynic acid as ester linkages are hydrolyzed ([4]; 37° C. over 6 days): generated at a linear rate
- rate of degradation of the prodrug ([4]; 37° C., 6 days): slightly faster
- prodrug converted to free ECA by day 6 ([4]; 37° C., day 6): Approximately 94%
- % Drug loading [5, 10]: 13.42%
- % Drug loading [5, 11]: 14.17%
- % Drug loading [5, 12]: 12.56%
- % Drug loading [5, 13]: 13.75%
- % Drug loading [5, 14]: 12.68%
- % Drug loading [5, 15]: 13.09%
- % Drug loading [5, 16]: 13.15%
- % Drug loading [5, 17]: 13.59%
- % Drug loading [5, 18]: 13.49%

Structure (SMILES): CCOC(=O)/C=C/C(=O)O[C@@H](CNC(C)(C)C)COc1nsnc1N1CCOCC1 [Compound 17, Timolol-O-Ethylfumurate]
- solubility [1, 9]: > 50000 µg/mL
- solubility ([1]; water): < 1000 µg/mL
- Solubility Water ([1]; water, 50 mg/mL target concentration): <1000 µg/mL
- linear release profile ([2]; microparticles, 78/22(PLA 5A/PLGA8515 4.5A) and 65/20/15(PLA 4A/PLGA6515 4.5A/PLGA5050 4A) polymer blends, FIG. 5): 3-6 month

Structure (SMILES): CC(=O)OCC(=O)O[C@H](COc1nsnc1N1CCOCC1)CN(C(=O)COC(C)=O)C(C)(C)C [Compound 52, Timolol-N,O-bis-Glycolic acid-OAc]
- parent Timolol released relative to total release of prodrug and intermediates ([6]; PBS and 1% Tween 20 (pH 7.4), 37° C.): primarily as native parent Timolol
- maximum release duration ([6]; in vitro, FIG. 21): approximately 70 days
- stability / breakdown into parent Timolol and breakdown products [7]: breaks down over the course of 15 days; also recorded: breaks down into parent Timolol

Structure (SMILES): CC(=O)OCC(=O)N(C[C@@H](COc1nsnc1N1CCOCC1)OC(=O)COC(=O)C(C)OC(=O)C(C)O)C(C)(C)C (some centres unmarked) [Compound 53, Timolol-N-Glycolic acid-OAc-O-Glycolic acid-PLA (n = 2)-OH]
- linear (4-month) drug release ([6]; in vitro): did not exhibit linear drug release; also recorded: did not consistently meet the 4-month criteria
- stability / breakdown into parent Timolol and breakdown products [7]: breaks down over the course of 8 days; also recorded: a significant amount of an additional breakdown product

Structure (SMILES): CCN(CC)CCNC(=O)c1c(C)[nH]c(/C=C2\C(=O)Nc3ccc(F)cc32)c1C [Sunitinib]
- hepatotoxicity [8]: observed hepatotoxicity
